The source of these data is article PMC8175851, “Effects of Genetic Polymorphism in CYP2D6, CYP2C19, and the Organic Cation Transporter OCT1 on Amitriptyline Pharmacokinetics in Healthy Volunteers and Depressive Disorder Patients” (Frontiers in Pharmacology, 2021).

Data set [1] addresses T1, OCT1 (Homo sapiens, UniProt O15245).
T1 construct: expressed in transfected cells
T1 sequence (O15245 1-554): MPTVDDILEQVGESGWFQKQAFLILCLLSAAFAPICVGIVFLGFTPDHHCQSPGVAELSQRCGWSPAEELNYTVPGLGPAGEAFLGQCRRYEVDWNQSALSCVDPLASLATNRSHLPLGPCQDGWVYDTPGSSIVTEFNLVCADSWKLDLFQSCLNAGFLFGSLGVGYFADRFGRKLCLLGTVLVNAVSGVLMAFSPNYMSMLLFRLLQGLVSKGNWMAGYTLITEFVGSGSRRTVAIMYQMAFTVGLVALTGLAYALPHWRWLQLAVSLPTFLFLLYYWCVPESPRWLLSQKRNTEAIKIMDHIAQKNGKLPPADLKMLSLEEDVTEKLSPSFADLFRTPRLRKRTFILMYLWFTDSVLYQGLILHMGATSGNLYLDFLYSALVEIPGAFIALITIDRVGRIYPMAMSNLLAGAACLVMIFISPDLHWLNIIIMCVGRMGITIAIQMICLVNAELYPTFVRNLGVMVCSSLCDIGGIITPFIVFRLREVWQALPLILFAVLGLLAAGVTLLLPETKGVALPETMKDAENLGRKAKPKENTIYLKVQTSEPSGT
Description: cell-based. The protocol: The inhibition of OCT1 by different psychotropic drugs was studied in transport experiments using HEK293 cells stably transfected with wild-type OCT1. The cells were generated by targeted chromosomal integration using the Flp-In system (Thermo Fisher Scientific, Darmstadt, Germany), as has been described in detail before ([Saadatmand et al., 2012]). The cells were cultured in Dulbecco’s Modified Eagle’s Medium supplemented with 10% foetal bovine serum, 100 U/ml penicillin, and 100 μg/ml streptomycin at 37°C, 5% CO2, and 95% relative humidity. Cells were kept in culture for no more than 30 passages. All buffers and reagents were purchased from Thermo Fisher Scientific (Darmstadt, Germany).
Approximately 48 h before the transport experiments, recombinant OCT1-expressing cells and empty vector-transfected control cells were seeded at a density of 4 × 10^5 cells/well in 12-well plates coated with poly-D-lysine and incubated as described above. On the day of the experiment, the cells were washed twice with prewarmed (37°C) Hank’s Balanced Salt Solution (HBSS). They were subsequently incubated for 3 min at 37°C with 1 µM of the fluorescent OCT1 substrate ASP^+ (4-(4-(dimethylamino)styryl)-N-methylpyridinium iodide) and increasing concentrations of the antidepressants in 500 µl HBSS. The reaction was stopped by adding 2 ml ice-cold HBSS. This was subsequently removed and the cells were lyzed in 500 µl radioimmunoprecipitation assay (RIPA) buffer for 10 min under shaking. The cell uptake of ASP^+ was quantified using a Tecan Ultra microplate reader (Tecan Group AG, Männedorf, Switzerland) at excitation wavelength 485 nm and emission wavelength 612 nm. The intracellular ASP^+ concentrations were normalised to the total amount of protein in the sample that was determined using the bicinchoninic acid assay ([Smith et al., 1985]). IC50 values were calculated using SigmaPlot 11 (Systat Software GmbH, Erkrath, Germany) and Prism 5 (GraphPad Software, San Diego, CA, United States).

Details of data set [2]: method as in Hardman et al., 2001. As to conditions: ref Hardman et al., 2001; cited from earlier work.
Data set [3] relates to OCT1. Description: Plasma acylcarnitine concentrations as endogenous biomarkers for OCT1 activity in healthy volunteers. The class given is in vivo, human.
Description: The peripheral venous blood samples of the healthy volunteers were treated with ethylenediaminetetraacetic acid (EDTA) for anticoagulation, centrifuged within 30 min after withdrawal (3,100 × g, 10 min, room temperature), and the plasma was stored at −20°C. For determining the plasma concentrations of AT, NT, IBC, 2-methylbutyrylcarnitine, and propionylcarnitine, plasma samples were mixed with twice the volume precipitation reagent of 10% (v/v) methanol and 90% (v/v) acetonitrile that included the corresponding deuterated internal standards AT-d6 (Biozol Diagnostica GmbH, Eching, Germany), NT-d3, IBC-d6, 2-methylbutyrylcarnitine-d9, and propionylcarnitine-d3 and d9 (all Santa Cruz Biotechnology, Heidelberg, Germany) and shaken for 15 min. After centrifugation (13,000 rpm, 15 min, room temperature), two-thirds of the supernatant were transferred to a new reaction tube and evaporated at 40°C under nitrogen flow. The residue was reconstituted under shaking in 0.1% methanoic acid and briefly centrifuged before quantification using a Nexera UHPLC system (Shimadzu, Kyoto, Japan) coupled to an API 4000 tandem mass spectrometer (AB Sciex, Darmstadt, Germany). Separation was done using a Brownlee SPP RP-Amide column (4.6 × 100 mm inner dimensions, 2.7 µm particle size; PerkinElmer, Rodgau, Germany) with a Phenomenex C18 pre-column (4 × 2 mm, Phenomenex, Aschaffenburg, Germany). For AT and NT, the mobile phase consisted of 0.1% (v/v) methanoic acid, 5.3% (v/v) methanol, and 31.7% (v/v) acetonitrile in water. For the carnitine derivatives, it consisted of 0.1% (v/v) methanoic acid, 0.43% (v/v) methanol, and 2.57% (v/v) acetonitrile in water. The lower limit of quantification was 0.5 ng/ml for AT and 0.1 ng/ml for NT. […]
In order to investigate the proposed suitability of IBC as a human in vivo biomarker for OCT1 activity ([Luo et al., 2020]), plasma concentrations of IBC as well as of 2-methylbutyrylcarnitine and propionylcarnitine were determined in a subgroup of 18 volunteers who participated in the study on AT pharmacokinetics. […]
Data set [4] can be described thus: Adverse effects of amitriptyline in healthy volunteers (visual analogue scales, pupillometry). The class given is in vivo, human. The protocol:
After overnight fasting, a single dose of 25 mg […] dura GmbH, Darmstadt, Germany) was orally administered to each subject. […] For the study in healthy volunteers, the primary endpoints were the AUCs of plasma AT and NT concentrations. Secondary endpoints were the other pharmacokinetic parameters of AT and NT, as well as heart rate, blood pressure, pupil size effects, and possible adverse events (headache, fatigue, visual or hearing impairments, restlessness, nausea, dizziness, dry mouth, tremor, as well as sensations of hypothermia and heart palpitations determined using a visual analogue scale test). Pharmacokinetic parameters were calculated by non-compartmental analysis using Phoenix 64 WinNonlin version 6.3 (Certara Inc., Princeton, NJ, United States). AUCinf of AT was calculated from the time of dosing using the linear/log trapezoidal rule and extrapolated to infinity based on the last predicted concentration and using the terminal elimination rate constant (lambda z). AUC of NT was calculated from the time of dosing until the last measurement at 48 h using the linear/log trapezoidal rule, as a decline in NT concentrations was not observed in some subjects and extrapolation to infinity thus not possible.

Details of data set [5]: method as in Rudorfer and Potter, 1999. To be noted: ref Rudorfer and Potter, 1999; cited from earlier work.
The conditions of data set [6]: no reference given, cited from earlier work.

Where two headings read alike, the source gives them in different places.

Usually IC50 stands for the midpoint of a concentration-inhibition curve. Regarding `CNCCC=C1c2ccccc2CCc2ccccc21` [Nortriptyline, nortriptyline], the IC50 against OCT1 [1] (inhibition of uptake of 1 µM ASP+, 3 min, HEK293 cells with wild-type OCT1, mean) was 40.4 ± 16.2 µM.
A word on the inhibition: it is the relative decrease from the control value, in per cent. The low end stands for a response near the control, the high end for a response far below the control. Regarding `CN(C)CCC=C1c2ccccc2CCc2ccccc21` [Amitriptyline, amitriptyline], the plasma protein binding in data set [2] was 95%. The “plasma IBC concentration relative to baseline IBC concentration” value with OCT1 [3] (2 h after 25 mg AT administration) amounted to 72%; with OCT1 [3] (4 h after 25 mg AT administration) it was 67%. In the data set with OCT1 [3] (after 25 mg AT), the “decrease in IBC plasma concentration observed in vivo” value is listed as 33%. Further, in data set [4] (healthy volunteers, single oral 25 mg AT, entire study), the serious adverse events result was “no serious adverse events occurred”. In addition, in data set [4] (healthy volunteers, single oral 25 mg AT, no placebo control), the tolerability result is “generally well-tolerated”. Moreover, the “time- and concentration-related adverse effects (dry mouth, visual or hearing impairment, restlessness, headache, nausea, dizziness, sensation of cold) and anticholinergic effects by pupillometry” value in data set [4] (visual analogue scales and pupillometry, 25 mg AT dose) is given as “not observed”. For the same compound, the “time of peak fatigue symptoms after administration” value in data set [4] (visual analogue scales, healthy volunteers, 25 mg AT, no placebo control) was determined as 3 h. Also, the “excreted unchanged in urine” value in data set [5] is on record as “less than 5%”. At OCT1 [1] (human, HEK293 cells stably transfected with wild-type OCT1), this compound returned an inhibition at 3 min, 2.69 µM of 23%. For the same compound, the IC50 on OCT1 [1] (read-out: IC50 (OCT1 inhibition)) was 28.6 ± 18.9 µM. Moreover, the positively charged fraction entry in data set [6] (at physiological pH) is recorded as “approximately 99%”. Besides, in data set [6] (pH 7.4), the logD7.4 was 3.
